Data taken from patent US12077503B2, “Substituted cyclic amides and their use as herbicides” (FMC CORPORATION, priority 2015, dated 2024).
Where two headings read alike, the source gives them in different places.

What was measured:
[1] = test system: Kochia (Kochia scoparia); assay: Test A preemergence; format: in vivo; conditions: Bassia scoparia, pre-emergence, 240 h; for pest or weed control at 125 g/ha: 125 g ai/ha; for pest or weed control at 500 g/ha: 500 g ai/ha
Summary of the method: (§1)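 Seeds sprayed preemergence with a directed soil spray, or plants at 2 to 10 cm height and one- to two-leaf stage sprayed postemergence, with test chemicals in a non-phytotoxic solvent mixture containing surfactant, in loam soil–sand blend. Injury rated visually against untreated controls after about 10 d in greenhouse, 0 (no effect) to 100 (complete control).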

[2] = test system: barnyardgrass (Echinochloa crus-galli); assay: Test A preemergence; format: in vivo; conditions: Echinochloa crus-galli, pre-emergence, 240 h; for pest or weed control at 125 g/ha: 125 g ai/ha; for pest or weed control at 500 g/ha: 500 g ai/ha
Summary of the method: as §1

[3] = test system: giant foxtail (Setaria faberii); assay: Test A preemergence; format: in vivo; conditions: Setaria faberi, pre-emergence, 240 h; for pest or weed control at 125 g/ha: 125 g ai/ha; for pest or weed control at 500 g/ha: 500 g ai/ha
Summary of the method: as §1

[4] = test system: pigweed (Amaranthus retroflexus); assay: Test A preemergence; format: in vivo; conditions: Amaranthus retroflexus, pre-emergence, 240 h; for pest or weed control at 125 g/ha: 125 g ai/ha; for pest or weed control at 500 g/ha: 500 g ai/ha
[5] = test system: ragweed (common ragweed, Ambrosia elatior); assay: Test A preemergence; format: in vivo; conditions: Ambrosia artemisiifolia, pre-emergence, 240 h; for pest or weed control at 125 g/ha: 125 g ai/ha; for pest or weed control at 500 g/ha: 500 g ai/ha
Summary of the method: as §1

[6] = test system: ryegrass, Italian (Italian ryegrass, Lolium multiflorum); assay: Test A preemergence; format: in vivo; conditions: Lolium multiflorum, pre-emergence, 240 h; for pest or weed control at 125 g/ha: 125 g ai/ha; for pest or weed control at 500 g/ha: 500 g ai/ha
Summary of the method: as §1

[7] = preemergence, 0 to 100 scale (0 no effect, 100 complete control), read-out: Plant response rating, Kochia
[8] = Preemergence, 0 to 100 scale (0 no effect, 100 complete control), read-out: Plant response rating, Kochia
[9] = preemergence, 0 to 100 scale (0 no effect, 100 complete control), read-out: Plant response rating, Barnyardgrass
[10] = Preemergence, 0 to 100 scale (0 no effect, 100 complete control), read-out: Plant response rating, Barnyardgrass
[11] = preemergence, 0 to 100 scale (0 no effect, 100 complete control), read-out: Plant response rating, Foxtail, Giant
[12] = Preemergence, 0 to 100 scale (0 no effect, 100 complete control), read-out: Plant response rating, Foxtail, Giant
[13] = preemergence, 0 to 100 scale (0 no effect, 100 complete control), read-out: Plant response rating, Pigweed
[14] = Preemergence, 0 to 100 scale (0 no effect, 100 complete control), read-out: Plant response rating, Pigweed
[15] = preemergence, 0 to 100 scale (0 no effect, 100 complete control), read-out: Plant response rating, Ragweed
[16] = Preemergence, 0 to 100 scale (0 no effect, 100 complete control), read-out: Plant response rating, Ragweed
[17] = preemergence, 0 to 100 scale (0 no effect, 100 complete control), read-out: Plant response rating, Ryegrass, Italian
[18] = Preemergence, 0 to 100 scale (0 no effect, 100 complete control), read-out: Plant response rating, Ryegrass, Italian

| melting point [°C] | Compound | pest or weed control at 500 g/ha [1, 7] [%] | pest or weed control at 125 g/ha [1, 8] [%] | pest or weed control at 500 g/ha [2, 9] [%] | pest or weed control at 125 g/ha [2, 10] [%] | pest or weed control at 500 g/ha [3, 11] [%] | pest or weed control at 125 g/ha [3, 12] [%] | pest or weed control at 500 g/ha [4, 13] [%] | pest or weed control at 125 g/ha [4, 14] [%] | pest or weed control at 500 g/ha [5, 15] [%] | pest or weed control at 125 g/ha [5, 16] [%] | pest or weed control at 500 g/ha [6, 17] [%] | pest or weed control at 125 g/ha [6, 18] [%] | also measured |
| --- | --- | --- | --- | --- | --- | --- | --- | --- | --- | --- | --- | --- | --- | --- |
| 123 to 127 | Cc1ccccc1NC(=O)[C@H]1C(=O)N(C)C[C@@H]1c1ccc(C(F)(F)F)cc1 [Compound 1239] |  |  |  |  |  |  |  |  |  |  |  |  | pest or weed control at 125 g/ha ([1]; preemergence, visual injury rating, 0 to 100 scale where 0 is no effect and 100 is complete control, approximately 10 d, read-out: Kochia plant response rating): 90%; pest or weed control at 125 g/ha ([2]; preemergence, visual injury rating, 0 to 100 scale where 0 is no effect and 100 is complete control, approximately 10 d, read-out: Barnyardgrass plant response rating): 80%; pest or weed control at 500 g/ha ([2]; preemergence, 0 to 100 scale where 0 is no effect and 100 is complete control, read-out: Barnyardgrass plant response rating): 90%; pest or weed control at 125 g/ha ([3]; preemergence, visual injury rating, 0 to 100 scale where 0 is no effect and 100 is complete control, approximately 10 d, read-out: Foxtail, Giant plant response rating): 90%; pest or weed control at 500 g/ha ([3]; preemergence, 0 to 100 scale where 0 is no effect and 100 is complete control, read-out: Foxtail, Giant plant response rating): 90%; pest or weed control at 125 g/ha ([4]; preemergence, visual injury rating, 0 to 100 scale where 0 is no effect and 100 is complete control, approximately 10 d, read-out: Pigweed plant response rating): 20%; pest or weed control at 500 g/ha ([4]; preemergence, 0 to 100 scale where 0 is no effect and 100 is complete control, read-out: Pigweed plant response rating): 60%; pest or weed control at 125 g/ha ([5]; preemergence, visual injury rating, 0 to 100 scale where 0 is no effect and 100 is complete control, approximately 10 d, read-out: Ragweed plant response rating): 0%; pest or weed control at 500 g/ha ([5]; preemergence, 0 to 100 scale where 0 is no effect and 100 is complete control, read-out: Ragweed plant response rating): 70%; pest or weed control at 125 g/ha ([6]; preemergence, visual injury rating, 0 to 100 scale where 0 is no effect and 100 is complete control, approximately 10 d, read-out: Ryegrass, Italian plant response rating): 50%; pest or weed control at 500 g/ha ([6]; preemergence, 0 to 100 scale where 0 is no effect and 100 is complete control, read-out: Ryegrass, Italian plant response rating): 50% |
| 54 to 57 | CN1CC[C@H](c2cccc(C(F)(F)F)c2)[C@@H](C(=O)Nc2cccc(F)c2F)C1=O [Compound 1330] | 90 | 20 | 90 | 90 | 90 | 90 | 0 | 0 | 50 | 0 | 50 | 50 |  |
| 188.1 to 192.4 | CN1C[C@H](c2ccc(C(F)(F)F)nc2)[C@@H](C(=O)Nc2cccc(F)c2F)C1=O [Compound 1372] | 90 | 90 | 100 | 90 | 100 | 90 | 90 | 90 | 90 | 90 | 60 | 60 |  |
| 81 to 84 | C=CCOc1cccc(C2CN(C)C(=O)C2C(=O)Nc2ccccc2F)c1 (stereo not drawn) [Compound 1329] | 50 | 50 | 100 | 90 | 90 | 90 | 30 | 0 | 20 | 0 | 40 | 0 |  |
